Data reported in patent publication US8741897B2, “Glucocorticoid mimetics, methods of making them, pharmaceutical compositions and uses thereof” (Boehringer Ingelheim Pharmaceuticals Inc., priority 2003, dated 2014).

Key:
[1] = target: T1, human glucocorticoid receptor (GR) complex (Homo sapiens, UniProt P04150); assay: Glucocorticoid receptor competitive binding assay (fluorescence polarization, TAMRA-labeled dexamethasone probe); conditions: compounds of Formula (IA)
T1 construct: made in house; host or cells: insect expression system (baculovirus lysate)
T1 sequence (P04150 1-777): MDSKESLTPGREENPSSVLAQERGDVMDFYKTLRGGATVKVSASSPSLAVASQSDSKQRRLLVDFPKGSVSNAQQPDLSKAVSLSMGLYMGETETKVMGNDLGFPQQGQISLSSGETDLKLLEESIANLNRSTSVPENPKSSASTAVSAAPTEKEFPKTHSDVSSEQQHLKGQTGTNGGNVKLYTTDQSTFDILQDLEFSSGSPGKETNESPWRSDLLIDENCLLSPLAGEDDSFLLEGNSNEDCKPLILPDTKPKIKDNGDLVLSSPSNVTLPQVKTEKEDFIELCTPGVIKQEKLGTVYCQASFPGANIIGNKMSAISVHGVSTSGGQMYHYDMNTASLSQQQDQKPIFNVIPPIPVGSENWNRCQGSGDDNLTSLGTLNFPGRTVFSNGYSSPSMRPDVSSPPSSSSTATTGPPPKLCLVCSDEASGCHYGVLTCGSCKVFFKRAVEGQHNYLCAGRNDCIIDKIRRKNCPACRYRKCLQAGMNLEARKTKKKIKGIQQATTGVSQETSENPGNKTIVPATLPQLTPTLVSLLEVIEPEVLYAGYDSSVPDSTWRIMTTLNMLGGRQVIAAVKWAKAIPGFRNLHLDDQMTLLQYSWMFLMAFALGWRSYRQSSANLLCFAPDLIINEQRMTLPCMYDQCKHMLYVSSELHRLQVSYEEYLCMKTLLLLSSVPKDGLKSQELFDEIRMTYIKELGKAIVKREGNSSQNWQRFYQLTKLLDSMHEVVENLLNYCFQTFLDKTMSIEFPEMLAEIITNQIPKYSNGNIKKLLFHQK
Experimental: Compounds of the invention were evaluated for binding to the steroid receptor by a fluorescence polarization competitive binding assay. Detailed descriptions for preparation of recombinant glucocorticoid receptor (GR) complex used in the assay is described in U.S. patent application Pub.
A. Glucocorticoid Receptor Competitive Binding Assay
Step 1. Characterization of the Fluorescent Probe
The wavelengths for maximum excitation and emission of the fluorescent probe should first be measured. An example of such a probe is rhodamine (TAMRA)-labeled dexamethasone.
The affinity of the probe for the steroid receptor was then determined in a titration experiment. The fluorescence polarization value of the probe in assay buffer was measured on an SLM-8100 fluorometer using the excitation and emission maximum values described above. Aliquots of expression vector lysate were added and fluorescence polarization was measured after each addition until no further change in polarization value was observed. Non-linear least squares regression analysis was used to calculate the dissociation constant of the probe from the polarization values obtained for lysate binding to the probe.
Step 2. Screening for Inhibitors of Probe Binding
This assay uses fluorescence polarization (FP) to quantitate the ability of test compounds to compete with tetramethyl rhodamine (TAMRA)-labeled dexamethasone for binding to a human glucocorticoid receptor (GR) complex prepared from an insect expression system. The assay buffer was: 10 mM TES, 50 mM KCl, 20 mM Na2MoO4.2H2O, 1.5 mM EDTA, 0.04% w/v CHAPS, 10% v/v glycerol, 1 mM dithiothreitol, pH 7.4. Test compounds were dissolved to 1 mM in neat DMSO and then further diluted to 10× assay concentration in assay buffer supplemented with 10% v/v DMSO. Test compounds were serially diluted at 10× assay concentrations in 10% DMSO-containing buffer in 96-well polypropylene plates. Binding reaction mixtures were prepared in 96-well black Dynex microtiter plates by sequential addition of the following assay components to each well: 15 μL of 10× test compound solution, 85 μL of GR-containing baculovirus lysate diluted 1:170 in assay buffer, and 50 μL of 15 nM TAMRA-labeled dexamethasone. Positive controls were reaction mixtures containing no test compound; negative controls (blanks) were reaction mixtures containing 0.7 μM to 2 μM dexamethasone. […] IC50 values were determined by iterative non-linear curve fitting of the FP signal data to a 4-parameter logistic equation.

[2] = system: glucocorticoid receptor function; assay: one or more of the above assays (GR binding and glucocorticoid receptor cell assays: aromatase, IL-6, TAT, MMTV-Luc, IL-8, ICAM-Luc); format: cell-based; conditions: assay not specified per compound

| Structure (SMILES) | activity in the GR binding assay [1] | activity as agonists of the glucocorticoid receptor function in one or more of the above assays [2] |
| --- | --- | --- |
| COc1ccc(F)cc1C(C)(C)CC(O)(Cc1cc2cc(NC(C)=O)ccc2[nH]1)C(F)(F)F (stereo not shown) [N-{2-[4-(5-Fluoro-2-methoxyphenyl)-2-hydroxy-4-methyl-2-trifluoromethylpentyl]-1H-indol-5-yl}acetamide] | potent activity | potent agonists |
| Cc1ccc(C(C)(C)CC(O)(Cc2cc3ccccc3[nH]2)C(F)(F)F)cc1C (stereo not shown) [4-(3,4-Dimethylphenyl)-1,1,1-trifluoro-2-(1H-indol-2-ylmethyl)-4-methylpentan-2-ol] | potent activity | potent agonists |
| COc1ccc(OC)c(C(C)(C)CC(O)(Cc2cc3ccncc3[nH]2)C(F)(F)F)c1 (stereo not shown) [4-(2,5-Dimethoxyphenyl)-1,1,1-trifluoro-4-methyl-2-(1H-pyrrolo[2,3-c]pyridin-2-ylmethyl)pentan-2-ol] | potent activity | potent agonists |
| COc1ccc(F)cc1C(C)(C)CC(O)(c1c(F)ccc2c(C)ccnc12)C(F)(F)F (stereo not shown) [1,1,1-Trifluoro-4-(5-fluoro-2-methoxyphenyl)-2-(7-fluoro-4-methylquinolin-8-yl)-4-methylpentan-2-ol] | potent activity | potent agonists |
| Cc1cccc(C(C)(C)CC(O)(Cc2ccnc3ccccc23)C(F)(F)F)c1 (stereo not shown) [1,1,1-Trifluoro-4-methyl-2-quinolin-4-ylmethyl-4-m-tolylpentan-2-ol] | potent activity | potent agonists |
| Cc1cc(C#N)cc2[nH]c(CC(O)(CC(C)(C)c3cccc4c3OCO4)C(F)(F)F)cc12 (stereo not shown) [2-(4-Benzo[1,3]dioxol-4-yl-2-hydroxy-4-methyl-2-trifluoromethylpentyl)-4-methyl-1H-indole-6-carbonitrile] | potent activity | potent agonists |
| COc1cc2cc(CC(O)(CC(C)(C)c3cc(F)ccc3OC)C(F)(F)F)[nH]c2cn1 (stereo not shown) [1,1,1-Trifluoro-4-(5-fluoro-2-methoxyphenyl)-2-(5-methoxy-1H-pyrrolo[2,3-c]pyridin-2-ylmethyl)-4-methylpentan-2-ol] | potent activity | potent agonists |
| Cc1cc(C#N)cc2[nH]c(CC(O)(CC(C)(C)c3cccc4c3OCC4)C(F)(F)F)cc12 (stereo not shown) [2-[4-(2,3-Dihydrobenzofuran-7-yl)-2-hydroxy-4-methyl-2-trifluoromethylpentyl]-4-methyl-1H-indole-6-carbonitrile] | potent activity | potent agonists |
| COc1ccc(C)cc1C(C)(C)CC(O)(Cc1cc2c(C)cc(C#N)cc2[nH]1)C(F)(F)F (stereo not shown) [2-[2-Hydroxy-4-(2-methoxy-5-methylphenyl)-4-methyl-2-trifluoromethylpentyl]-4-methyl-1H-indole-6-carbonitrile] | potent activity |  |
| COc1ccc(F)cc1C(C)(C)CC(O)(Cc1cc2cc(C(=O)NCCO)ccc2[nH]1)C(F)(F)F (stereo not shown) [2-[4-(5-Fluoro-2-methoxyphenyl)-2-hydroxy-4-methyl-2-trifluoromethylpentyl]-1H-indole-5-carboxylic acid (2-hydroxyethyl)amide] | potent activity |  |
| COc1ccc(F)cc1C(C)(C)CC(O)(Cc1cc2ccc(C(=O)N(C)C)cc2[nH]1)C(F)(F)F (stereo not shown) [2-[4-(5-Fluoro-2-methoxyphenyl)-2-hydroxy-4-methyl-2-trifluoromethylpentyl]-1H-indole-6-carboxylic acid dimethylamide] | potent activity |  |
| COc1ccc(F)cc1C(C)(C)CC(O)(Cc1cc2nc(C)ncc2[nH]1)C(F)(F)F (stereo not shown) [1,1,1-Trifluoro-4-(5-fluoro-2-methoxyphenyl)-4-methyl-2-(2-methyl-5H-pyrrolo[3 ,2-d]pyrimidin-6-ylmethyl)pentan-2-ol] | potent activity |  |
| COc1ccc(F)cc1C(C)(C)CC(O)(Cc1cc2cc(C(=O)NCCCC(=O)O)ccc2[nH]1)C(F)(F)F (stereo not shown) [4-({2-[4-(5-Fluoro-2-methoxyphenyl)-2-hydroxy-4-methyl-2-trifluoromethylpentyl]-1H-indole-5-carbonyl}amino)butyric acid] | potent activity |  |
| Cc1ccc(F)cc1C(C)(C)CC(O)(Cc1cc2cc(=O)n(C)cc2[nH]1)C(F)(F)F (stereo not shown) [2-[4-(5-Fluoro-2-methylphenyl)-2-hydroxy-4-methyl-2-trifluoromethylpentyl]-6-methyl-1,6-dihydropyrrolo[2,3-c]pyridin-5-one] | potent activity |  |
| CC(C)(CC(O)(Cc1cc2ccccc2[nH]1)C(F)(F)F)c1cccc(-c2ccccc2)c1 (stereo not shown) [4-Biphenyl-3-yl-1,1,1-trifluoro-2-(1H-indol-2-ylmethyl)-4-methylpentan-2-ol] | potent activity |  |
| COc1ccc(F)cc1C(C)(C)CC(O)(Cn1ccc2cccnc21)C(F)(F)F (stereo not shown) [1,1,1-Trifluoro-4-(5-fluoro-2-methoxyphenyl)-4-methyl-2-pyrrolo[2,3-b]pyridin-1-ylmethylpentan-2-ol] | potent activity |  |
| CC(C)(CC(O)(Cc1ccnc2ccccc12)C(F)(F)F)c1ccncc1 (stereo not shown) [1,1,1-Trifluoro-4-methyl-4-pyridin-4-yl-2-quinolin-4-ylmethylpentan-2-ol] | potent activity |  |
| Cc1ccc(F)cc1C(C)(C)CC(O)(Cc1cc2nnccc2[nH]1)C(F)(F)F (stereo not shown) [1,1,1-Trifluoro-4-(5-fluoro-2-methylphenyl)-4-methyl-2-(5H-pyrrolo[3,2-c]pyridazin-6-ylmethyl)pentan-2-ol] | potent activity |  |
| CC(C)(CC(O)(Cc1cc2ccc(C(=O)N3CCOCC3)cc2[nH]1)C(F)(F)F)c1cc(F)ccc1O (stereo not shown) [{2-[4-(5-Fluoro-2-hydroxyphenyl)-2-hydroxy-4-methyl-2-trifluoromethylpentyl]-1H-indol-6-yl}morpholin-4-ylmethanone] | potent activity |  |
| CN(C)C(=O)c1ccc2cc(CC(O)(CC(C)(C)c3cc(F)ccc3O)C(F)(F)F)[nH]c2c1 (stereo not shown) [2-[4-(5-Fluoro-2-hydroxyphenyl)-2-hydroxy-4-methyl-2-trifluoromethylpentyl]-1H-indole-6-carboxylic acid dimethylamide] | potent activity |  |
| COc1ccc(F)cc1C(C)(C)CC(O)(Cc1cc2ccc(C(=O)N3CCOCC3)cc2[nH]1)C(F)(F)F (stereo not shown) [{2-[4-(5-Fluoro-2-methoxyphenyl)-2-hydroxy-4-methyl-2-trifluoromethylpentyl]-1H-indol-6-yl}morpholin-4-ylmethanone] | potent activity |  |
| CC(C)(CC(O)(Cc1cc2cc(-c3ccccc3)ccc2[nH]1)C(F)(F)F)c1cc(F)cc2c1OCC2 (stereo not shown) [1,1,1-Trifluoro-4-(5-fluoro-2,3-dihydrobenzofuran-7-yl)-4-methyl-2-(5-phenyl-1H-indol-2-ylmethyl)pentan-2-ol] | potent activity |  |
| CN(C)c1ccc(C(C)(C)CC(O)(Cc2cc3ccccc3[nH]2)C(F)(F)F)cc1 (stereo not shown) [4-(4-Dimethylaminophenyl)-1,1,1-trifluoro-2-(1H-indol-2-ylmethyl)-4-methylpentan-2-ol] | potent activity |  |
